The values that follow come from patent publication US20230077362A1 (CORTEVA AGRISCIENCE LLC, priority 2019, published 2023).

Assay [1] concerns Cabbage Looper (Trichoplusia ni) ("CL"), second instar larvae. Kind of assay: Bioassay on cabbage looper (CL), 128-well diet tray assay. It is filed as in vivo. As to conditions: Trichoplusia ni, read-out: CL (Biological Results, rating). In outline:
(§1)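 Read-out: percent larval mortality per well, averaged over 8 wells. Incubation 25° C., 14:10 L:D photoperiod, 5–7 days, trays sealed with clear adhesive cover.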

The subject of assay [2] is Beet Armyworm (Spodoptera exigua) ("BAW"), second instar larvae. Kind of assay: Bioassay on beet armyworm (BAW), 128-well diet tray assay. It is filed as in vivo. As to conditions: Spodoptera exigua, read-out: BAW (Biological Results, rating). In outline:
as §1

On to `COc1ccc(C(C)C)c(N2C(=O)CS/C2=N\C(=O)Nc2ccc(-c3ncn(-c4ccc(C(F)(F)F)cn4)n3)cc2C)c1` [Compound J292, (Z)-1-(3-(2-Isopropyl-5-methoxyphenyl)-4-oxothiazolidin-2-ylidene)-3-(2-methyl-4-(1-(5-(trifluoromethyl)pyridin-2-yl)-1H-1,2,4-triazol-3-yl)phenyl)urea], for which the pest or weed control at 50 µg/cm2 in assay [1] and in assay [2] was 50 to 100% in each case.

For `CCCc1ccc(C)cc1N1C(=O)CS/C1=N\C(=O)Nc1ccc(-c2ncn(-c3ccc(C(F)(F)F)cn3)n2)cc1C` [Compound J293, (Z)-1-(3-(5-Methyl-2-propylphenyl)-4-oxothiazolidin-2-ylidene)-3-(2-methyl-4-(1-(5-(trifluoromethyl)pyridin-2-yl)-1H-1,2,4-triazol-3-yl)phenyl)urea], the pest or weed control at 50 µg/cm2 in assay [1] and in assay [2] was 50 to 100% throughout.

In the case of `CCCc1ccc(N(C)C)cc1N1C(=O)CS/C1=N\C(=O)Nc1ccc(-c2ncn(-c3ccc(C(F)(F)F)cn3)n2)cc1C` [Compound J294, (Z)-1-(3-(5-(Dimethylamino)-2-propylphenyl)-4-oxothiazolidin-2-ylidene)-3-(2-methyl-4-(1-(5-(trifluoromethyl)pyridin-2-yl)-1H-1,2,4-triazol-3-yl)phenyl)urea], the pest or weed control at 50 µg/cm2 in assay [1] and in assay [2] was 50 to 100% in each case.

On to `Cc1ccc(C(C)C)c(N2C(=O)CS/C2=N\C(=O)Nc2ccc(-c3ncn(-c4ccc(C(F)(F)F)cn4)n3)cc2Cl)c1` [Compound J295, (Z)-1-(2-Chloro-4-(1-(5-(trifluoromethyl)pyridin-2-yl)-1H-1,2,4-triazol-3-yl)phenyl)-3-(3-(2-isopropyl-5-methylphenyl)-4-oxothiazolidin-2-ylidene)urea], for which the pest or weed control at 50 µg/cm2 in assay [1] and in assay [2] was 50 to 100% throughout.

Take `CC(C)c1ccc(N(C)C)cc1N1C(=O)CS/C1=N\C(=O)Nc1ccc(-c2ncn(-c3ccc(C(F)(F)F)cn3)n2)cc1Cl` [Compound J296, (Z)-1-(2-Chloro-4-(1-(5-(trifluoromethyl)pyridin-2-yl)-1H-1,2,4-triazol-3-yl)phenyl)-3-(3-(5-(dimethylamino)-2-isopropylphenyl)-4-oxothiazolidin-2-ylidene)urea]: the pest or weed control at 50 µg/cm2 in assay [1] and in assay [2] was 50 to 100% throughout.

For `Cc1ccc(COCC(F)(F)F)c(N2C(=O)CS/C2=N\C(=O)Nc2ccc(-c3ncn(-c4ccc(C(F)(F)F)cn4)n3)cc2C)c1` [Compound J297, (Z)-1-(3-(5-Methyl-2-((2,2,2-trifluoroethoxy)methyl)phenyl)-4-oxothiazolidin-2-ylidene)-3-(2-methyl-4-(1-(5-(trifluoromethyl)pyridin-2-yl)-1H-1,2,4-triazol-3-yl)phenyl)urea], the pest or weed control at 50 µg/cm2 in assay [1] and in assay [2] was 50 to 100% each time.

Regarding `COCc1ccc(C)cc1N1C(=O)CS/C1=N\C(=O)Nc1ccc(-c2ncn(-c3ccc(C(F)(F)F)cn3)n2)cc1F` [Compound J298, (Z)-1-(2-Fluoro-4-(1-(5-(trifluoromethyl)pyridin-2-yl)-1H-1,2,4-triazol-3-yl)phenyl)-3-(3-(2-(methoxymethyl)-5-methylphenyl)-4-oxothiazolidin-2-ylidene)urea], the pest or weed control at 50 µg/cm2 in assay [1] and in assay [2] was 50 to 100% throughout.

For the compound `CCOCc1ccc(C)cc1N1C(=O)CS/C1=N\C(=O)Nc1ccc(-c2ncn(-c3ccc(C(F)(F)F)cn3)n2)cc1F` [Compound J299, (Z)-1-(3-(2-(Ethoxymethyl)-5-methylphenyl)-4-oxothiazolidin-2-ylidene)-3-(2-fluoro-4-(1-(5-(trifluoromethyl)pyridin-2-yl)-1H-1,2,4-triazol-3-yl)phenyl)urea], the pest or weed control at 50 µg/cm2 in assay [1] and in assay [2] was 50 to 100% throughout.

Regarding `COC(C)c1cc(C)ccc1N1C(=O)CS/C1=N\C(=O)Nc1ccc(-c2ncn(-c3ccc(C(F)(F)F)cn3)n2)cc1F` (stereo not drawn) [Compound J300, (Z)-1-(2-Fluoro-4-(1-(5-(trifluoromethyl)pyridin-2-yl)-1H-1,2,4-triazol-3-yl)phenyl)-3-(3-(2-(1-methoxyethyl)-4-methylphenyl)-4-oxothiazolidin-2-ylidene)urea], the pest or weed control at 50 µg/cm2 in assay [1] and in assay [2] was 50 to 100% in each case.

Regarding `Cc1ccc(C(C)C)c(N2C(=O)CS/C2=N\C(=O)Nc2ccc(-c3ncn(-c4ccc(C(F)(F)F)cn4)n3)cc2C(F)(F)F)c1` [Compound J301, (Z)-1-(3-(2-Isopropyl-5-methylphenyl)-4-oxothiazolidin-2-ylidene)-3-(2-(trifluoromethyl)-4-(1-(5-(trifluoromethyl)pyridin-2-yl)-1H-1,2,4-triazol-3-yl)phenyl)urea], the pest or weed control at 50 µg/cm2 in assay [1] and in assay [2] was 50 to 100% in each case.

With `CC(C)c1ccc(N(C)C)cc1N1C(=O)CS/C1=N\C(=O)Nc1ccc(-c2ncn(-c3ccc(C(F)(F)F)cn3)n2)cc1C(F)(F)F` [Compound J302, (Z)-1-(3-(5-(Dimethylamino)-2-isopropylphenyl)-4-oxothiazolidin-2-ylidene)-3-(2-(trifluoromethyl)-4-(1-(5-(trifluoromethyl)pyridin-2-yl)-1H-1,2,4-triazol-3-yl)phenyl)urea], the pest or weed control at 50 µg/cm2 in assay [1] and in assay [2] was 50 to 100% in each case.

Consider `COC(C)c1ccc(C)cc1N1C(=O)CS/C1=N\C(=O)Nc1ccc(-c2ncn(-c3ccc(C(F)(F)F)cn3)n2)cc1C(F)(F)F` (stereo not drawn) [Compound J303, (Z)-1-(3-(2-(1-Methoxyethyl)-5-methylphenyl)-4-oxothiazolidin-2-ylidene)-3-(2-(trifluoromethyl)-4-(1-(5-(trifluoromethyl)pyridin-2-yl)-1H-1,2,4-triazol-3-yl)phenyl)urea], for which the pest or weed control at 50 µg/cm2 in assay [1] and in assay [2] was 50 to 100% throughout.

On to `Cc1ccc(COCC(F)(F)F)c(N2C(=O)CS/C2=N\C(=O)Nc2ccc(-c3ncn(-c4ccc(C(F)(F)F)cn4)n3)cc2C(F)(F)F)c1` [Compound J304, (Z)-1-(3-(5-Methyl-2-((2,2,2-trifluoroethoxy)methyl)phenyl)-4-oxothiazolidin-2-ylidene)-3-(2-(trifluoromethyl)-4-(1-(5-(trifluoromethyl)pyridin-2-yl)-1H-1,2,4-triazol-3-yl)phenyl)urea], for which the pest or weed control at 50 µg/cm2 in assay [1] and in assay [2] was 50 to 100% each time.

`Cc1ccc(OCCC(F)(F)F)c(N2C(=O)CS/C2=N\C(=O)Nc2ccc(-c3ncn(-c4ccc(C(F)(F)F)cn4)n3)cc2C(F)(F)F)c1` [Compound J305, (Z)-1-(3-(5-Methyl-2-(3,3,3-trifluoropropoxy)phenyl)-4-oxothiazolidin-2-ylidene)-3-(2-(trifluoromethyl)-4-(1-(5-(trifluoromethyl)pyridin-2-yl)-1H-1,2,4-triazol-3-yl)phenyl)urea]: the pest or weed control at 50 µg/cm2 in assay [1] and in assay [2] was 50 to 100% in each case.

Turning to `COC(C)c1ccc(C)cc1N1C(=O)CS/C1=N\C(=O)Nc1ccc(-c2ncn(-c3ccc(C(F)(F)F)cn3)n2)cc1Cl` (stereo not drawn) [Compound J306, (Z)-1-(2-Chloro-4-(1-(5-(trifluoromethyl)pyridin-2-yl)-1H-1,2,4-triazol-3-yl)phenyl)-3-(3-(2-(1-methoxyethyl)-5-methylphenyl)-4-oxothiazolidin-2-ylidene)urea], the pest or weed control at 50 µg/cm2 in assay [1] and in assay [2] was 50 to 100% each time.
